Laboratory results published in patent US7285687B2 (priority 2002, dated 2007).
Where two headings read alike, the source gives them in different places.

Columns and labels:
CB1 receptor = target: T1, CB1 receptor (Rattus norvegicus, UniProt P20272); experiment: CB1 binding procedure, displacement of [3H]CP 55,940 from rat whole-brain P2 membranes
T1 construct: whole brain was homogenized and centrifuged; from tissue; host or cells: whole brain of male Sprague-Dawley rats, P2 membrane fraction
Protocol: (§1) Male ICR mice (25-32 g), obtained from Harlan (Dublin, Va.), were housed in groups of five. All animals were kept in a temperature-controlled (20-22° C.) environment with a 12-hour light-dark cycle (lights on at 7 a.m.). Separate mice were used for testing each drug dose in the in vivo behavioral procedures. Brain tissue for binding studies was obtained from male Sprague-Dawley rats (150-200 g) purchased from Harlan Laboratories (Dublin, Va.).
The methods used for tissue preparation and binding have been described previously (Compton et al., 1993) and are similar to those described by Devane et al. (1988). All assays, as described briefly below, were performed in triplicate, and the results represent the combined data from three to six individual experiments.
Following decapitation and rapid removal of the brain, whole brain was homogenized and centrifuged. The resulting pellet was termed P1. The supernatant was saved and combined with the two subsequent supernatants obtained from washing of the P1 pellet. The combined supernatant fractions were centrifuged, resulting in the P2 pellet. After further incubation and centrifuging, this pellet was resuspended in assay buffer to a protein concentration of approximately 2 mg/ml. The membrane preparation was quickly frozen in a bath solution of dry ice and 2-methylbutane (Sigma Chemical Co., St. Louis, Mo.), then stored at −80° C. for no more than 2 weeks. Prior to performing a binding assay an aliquot of frozen membrane was rapidly thawed and protein values determined by the method of Bradford (1976).
Binding was initiated by the addition of 150•g of P2 membrane to test tubes containing 1 nM of [^3H] CP 55,940 (79 Ci/mmol) and a sufficient quantity of buffer to bring the total incubation volume to 1 ml. […] Following incubation at 30° C. for 1 hr, binding was terminated by addition of ice cold buffer and vacuum filtration through pretreated filters in a 12-well sampling manifold (Millipore, Bedford, Mass.). After washing, filters were placed into plastic scintillation vials (Packard, Downer Grove, Ill.) and shaken. The quantity of radioactivity present was determined by liquid scintillation spectrometry.
(§2) In addition, multiple linear regression was used to calculate the overall degree of relationship between CB1 binding affinity and potency in the mouse measures for all active cannabinoids. […] Ki values for CB1 and CB2 binding were obtained from Scatchard displacement analysis as determined via EBDA program of the KELL software package (Biosoft, Milltown, N.J.).

CB2 receptor = target: T2, CB2 receptor (Homo sapiens, UniProt P34972); experiment: CB2 binding procedure, displacement of [3H]CP-55,940 from membranes of transfected CHO cells; details: for CB1/CB2: ratio of CB1 Ki to CB2 Ki
T2 construct: expressed in transfected cells
T2 sequence (P34972 whole entry): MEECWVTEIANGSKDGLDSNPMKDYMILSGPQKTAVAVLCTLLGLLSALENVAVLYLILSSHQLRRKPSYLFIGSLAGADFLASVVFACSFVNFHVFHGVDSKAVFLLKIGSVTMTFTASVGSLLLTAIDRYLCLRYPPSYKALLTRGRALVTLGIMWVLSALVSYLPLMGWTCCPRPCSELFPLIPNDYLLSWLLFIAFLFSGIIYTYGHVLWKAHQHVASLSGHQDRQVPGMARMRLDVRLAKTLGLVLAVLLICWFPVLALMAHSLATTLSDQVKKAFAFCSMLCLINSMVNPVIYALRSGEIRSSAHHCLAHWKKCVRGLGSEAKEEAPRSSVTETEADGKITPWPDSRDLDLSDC
Protocol: Membranes for CB2 binding were obtained from CHO cells. The transfected cell line was maintained in Dublecco's Modified Eagle Medium (Gibco BRL, Grand Island, N.Y.) with 10% fetal clone II (HyClone Laboratories, Inc., Logan, Utah) plus 0.3 to 0.5 mg/ml G418 (to maintain selective pressure) under 5% CO2 at 37% C. Cells were harvested with 1 mM EDTA in phosphate-buffered saline and were centrifuged at 1000×g for 5 min at 4% C. The supernatant was saved and the P1 pellet was resuspended in centrifugation buffer. Homogenization and centrifugation were repeated twice and the combined supernatant fractions were centrifuged at 40,000×g for 30 min at 4% C. The P2 pellet was resuspended in centrifugation buffer 2 (Tris HCl, 50 mM; EDTA, 1 mM; and MgCl2, 3 mM, pH 7.4) to a protein concentration of approximately 2 mg/ml. Protein concentrations were determined by the method of Bradford (1976) using Bio-Rad Protein Assay (Bio-Rad, Richmond, Calif.) and BSA standards (fatty acid free, Sigma Chemical Co., St. Louis, Mo.). The membrane preparation was divided into amounts convenient for binding assays and frozen rapidly in dry ice and stored at −80% C.
Binding was initiated by the addition of 50•g of quickly thawed P2 membranes to test tubes containing [^3H]CP-55,940 (final reaction concentration 0.5 nM), an appropriate concentration of unlabeled CP-55,940 or test drug, and sufficient quantity of assay buffer (50 mM Tris-HCl, 1 mM EDTA, 3 mM MgCl2, 5 mg/ml bovine serum albumin, pH 7.4) to bring the total incubation volume to 0.5 ml. Concentration of [^3H]CP-55,940 in saturation studies ranged from 50 to 10,000 pM. […] CP-55,940 and all cannabinoid analogs were-prepared by suspension in assay buffer from a 1 mg/ml ethanolic stock without evaporation of the ethanol (final concentration of no more than 0.4%). In competition studies, analog concentrations ranged from 0.1 nM to 10•M. After incubation at […] for 1 hr, binding was terminated by the addition of 2 ml of ice-cold wash buffer (50 mM Tris-HCl and 1 mg/ml BSA) and vacuum filtration through pre-treated filters in a 12-well sampling manifold (Millipore, Bedford, Mass.). Reaction vessels were washed once with 2 ml of ice-cold wash buffer. Filters were placed into 7-ml plastic scintillation vials (RPI Corp., Mount Prospect, Ill.) with 4 ml of Budget-Solve (RPI Corp.). After shaking for 30 min, the radioactivity present was determined by liquid scintillation spectrometry. Three reaction vessels were used for each drug concentration in each assay. The results represent the combined data of three independent experiments. All assays were performed in siliconized test tubes, which were prepared by air drying (12 hr) inverted borosilicate tubes after two rinses with a 0.1% solution of AquaSil (Pierce, Rockford, Ill.). The GF/C glass-fiber filters (2.4 cm, Baxter, McGaw Park, Ill.) were pre-treated in a 0.1% solution of pH 7.4 polyethylenimine (Sigma Chemical Co.) for at least 6 hr.
as §2

male ICR mice [1] = experiment: Tail-flick antinociception (TF, % MPE) in mice, i.v.; type: in vivo, mouse; details: for inhibition in vivo at 30 mg/kg / ED50: Mus musculus, iv; for inhibition in vivo at 30 mg/kg: Table 6, read-out: T.F. % effect at dose; for inhibition in vivo at 30 mg/kg / T.F. % effect at dose: @ 30 mg/kg
Protocol: as §1
(§3) Measurement of spontaneous activity in mice occurred in standard activity chambers interfaced with a Digiscan Animal Activity Monitor (Omnitech Electronics, Inc., Columbus, Ohio). A standard tail-flick apparatus and a digital thermometer (Fisher Scientific, Pittsburgh, Pa.) were used to measure antinociception and rectal temperature, respectively.
(§4) Resorcinols were synthesized in our labs (Organix, Inc., Woburn, Mass.) according to the procedure specified below and were suspended in a vehicle of absolute ethanol, Emulphor-620 (Rhone-Poulenc, Inc., Princeton, N.J.), and saline in a ratio of 1:1:18. Drugs were administered to the mice intravenously (i.v.) in the tail vein at a volume of 0.1 ml/10 g.
(§5) Prior to testing in the behavioral procedures, mice were acclimated to the experimental setting (ambient temperature 22-24° C.) overnight. Pre-injection control values were determined for rectal temperature and tail-flick latency (in sec). Five min after i.v. injection with drug or vehicle, mice were placed in individual activity chambers and spontaneous activity was measured for 10 min. […] Tail-flick latency was measured at 20 min post-injection. Maximum latency of 10 sec was used. Antinociception was calculated as percent of maximum possible effect {% MPE=[(test−control latency)/(10-control)]×100}. Control latencies typically ranged from 1.5 to 4.0 sec. At 30 min post-injection, rectal temperature was measured. This value was expressed as the difference between control temperature (before injection) and temperatures following drug administration (° C.). Different mice (n=5-6 per dose) were tested for each dose of each compound. Each mouse was tested in each of the 3 procedures.
(§6) Based on data obtained from numerous previous studies with cannabinoids, maximal cannabinoid effects in each procedure were estimated as follows: 90% inhibition of spontaneous activity, 100% MPE in the tail flick procedure, and −6° C. change in rectal temperature. ED50's were defined as the dose at which half maximal effect occurred. For drugs that produced one or more cannabinoid effect, ED50's were calculated separately using least-squares linear regression on the linear part of the dose-effect curve for each measure in the mouse tetrad, plotted against log10 transformation of the dose. For the purposes of potency comparison, potencies were expressed as μmol/kg.

male ICR mice [2] = experiment: Change in rectal temperature (RT) in mice, i.v.; type: in vivo, mouse; details: for R.T. effect at dose: @ 30 mg/kg; for ED50: Mus musculus, iv
Protocol: as §1, §3, §4, §5, §6

male ICR mice [3] = experiment: Suppression of spontaneous activity (SA) in mice, i.v.; type: in vivo, mouse; details: for ED50: Mus musculus, iv
Protocol: as §1, §3, §4, §5, §6

[4] = 95% confidence limits in parentheses, read-out: ED50 RT (rectal temperature)
[5] = mean ± SEM, [3H]CP 55,940, rat brain membranes, read-out: Ki(nM) CB1
[6] = 95% confidence limits in parentheses, read-out: ED50 SA (suppression of spontaneous activity)
[7] = mean ± SEM, [3H]CP-55,940, transfected CHO cell membranes, read-out: Ki(nM) CB2
[8] = 95% confidence limits in parentheses, read-out: ED50 TF (antinociception in tail flick assay)

T1 sequence (P20272 whole entry): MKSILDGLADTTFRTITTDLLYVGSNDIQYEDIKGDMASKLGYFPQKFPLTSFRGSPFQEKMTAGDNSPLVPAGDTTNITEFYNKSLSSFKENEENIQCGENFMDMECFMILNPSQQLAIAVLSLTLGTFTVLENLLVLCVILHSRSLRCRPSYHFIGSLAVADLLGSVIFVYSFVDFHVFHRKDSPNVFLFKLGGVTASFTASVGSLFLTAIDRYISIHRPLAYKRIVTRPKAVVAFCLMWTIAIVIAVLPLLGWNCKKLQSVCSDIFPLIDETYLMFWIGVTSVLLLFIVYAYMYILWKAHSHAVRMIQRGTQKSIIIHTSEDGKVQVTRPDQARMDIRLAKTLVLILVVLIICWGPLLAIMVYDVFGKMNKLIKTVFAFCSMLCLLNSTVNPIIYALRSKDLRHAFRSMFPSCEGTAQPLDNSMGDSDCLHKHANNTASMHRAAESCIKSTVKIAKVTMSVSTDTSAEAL

C=C(C)[C@@H]1CCC(C)=CC1c1c(C)cc(O)cc1O (single isomer, unassigned; (-)) [O-1602]
Ki (CB1 receptor; Table 6, read-out: CB1 KI): > 10000 nM
Ki (CB2 receptor; Table 6, read-out: CB2 KI): > 10000 nM
inhibition in vivo at 30 mg/kg (male ICR mice [1]): 0%
R.T. effect at dose (male ICR mice [2]; Table 6): 0.3 @ 30 °C

C=C(C)[C@@H]1CCC(C)=CC1c1c(O)cc(C)cc1O (single isomer, unassigned; (-)) [O-1821, (-)-2-(3-3,4-trans-p-menthadien-(1,8)-yl)-orcinol]
Ki (CB1 receptor; Table 6, read-out: CB1 KI): > 10000 nM
S.A. % effect at dose (male ICR mice [3]; @ 30 mg/kg, Table 6): 0 @ 30%
inhibition in vivo at 30 mg/kg (male ICR mice [1]): 3%

CCCCCCC(C)(C)c1cc(OC)c(C2(O)CCCC(C)C2)c(OC)c1 (single isomer, unassigned; isomer 1) [O-1966A, 1-[4-(1,1-Dimethyl-heptyl)-2,6-dimethoxy-phenyl]-3-methyl-cyclohexanol isomer 1]
CB1/CB2 (CB2 receptor): 220
R.T. effect at dose (male ICR mice [2]; Table 6, 30 mg/kg): 0.5 @ 30 °C

CCCCCCC(C)(C)c1cc(OC)c(C2(O)CCCC(C)C2)c(OC)c1 (single isomer, unassigned; isomer 2) [O-1967B, 1-[4-(1,1-Dimethyl-heptyl)-2,6-dimethoxy-phenyl]-3-methyl-cyclohexanol isomer 2]
CB1/CB2 (CB2 receptor): 15
T.F. % effect at dose (male ICR mice [1]; Table 6, 30 mg/kg): 8.2% @30
R.T. effect at dose (male ICR mice [2]; Table 6, 30 mg/kg): 0 @ 30 °C

CCCCCCC(C)(C)c1ccc(-c2cc(C)ccc2C(C)C)c(O)c1 [O-1376, 3-1′,1′-Dimethylhepty-6-(2-isopropyl-5-methylphenyl)phenol]
Ki (CB2 receptor; Table 6, read-out: CB2 KI): 2.63 ± 0.36 nM
CB1/CB2 (CB2 receptor): 11
ED50 (male ICR mice [2]; [4]): 23 µmol/kg

CCCCCCC(C)(C)c1cc(O)c(C2CCCCCC2)c(O)c1 [O-1656, 2-Cycloheptyl-5-(1′,1′-dimethyl-heptyl)-resorcinol]
Ki (CB1 receptor; Table 6, read-out: CB1 KI): 17.8 ± 1.4 nM
Ki (CB1 receptor; [5]): 18 ± 1 nM
ED50 (male ICR mice [3]; [6]): 1.5 µmol/kg
ED50 (male ICR mice [3]; Table 6, read-out: S.A. ED50): 0.53 mg/kg
Ki (CB2 receptor; Table 6, read-out: CB2 KI): 2.12 ± 0.25 nM
Ki (CB2 receptor; [7]): 2 ± 0.2 nM
CB1/CB2 (CB2 receptor): 9
ED50 (male ICR mice [1]; [8]): 1.2 µmol/kg
ED50 (male ICR mice [1]; Table 6, read-out: T.F. ED50): 0.39 mg/kg
ED50 (male ICR mice [2]; [4]): 0.6 µmol/kg
ED50 (male ICR mice [2]; Table 6, read-out: R.T. ED50): 0.21 mg/kg

CCCCCCC(C)(C)c1cc(O)c(C2CCSC2)c(O)c1 (stereo not shown) [O-1661, 2-(Tetrahydrothiophen-3-yl)-5-(1′,1′-dimethylheptyl)-resorcinol]
ED50 (male ICR mice [3]; Table 6, read-out: S.A. ED50): 7.65 mg/kg
CB1/CB2 (CB2 receptor): 5

CCCCCCC(C)(C)c1cc(O)c(C2CCCC(C)(C)C2)c(O)c1 (stereo not shown) [O-1871]
Ki (CB1 receptor; Table 6, read-out: CB1 KI): 2.3 ± 0.32 nM
Ki (CB1 receptor; [5]): 2 ± 0.3 nM
ED50 (male ICR mice [3]; [6]): < 1 µmol/kg
ED50 (male ICR mice [3]; Table 6, read-out: S.A. ED50): 0.04 mg/kg
Ki (CB2 receptor; Table 6, read-out: CB2 KI): 0.3 ± 0.01 nM
Ki (CB2 receptor; [7]): 0.3 ± 0.01 nM
CB1/CB2 (CB2 receptor): 7
ED50 (male ICR mice [1]; [8]): 2.3 µmol/kg
ED50 (male ICR mice [1]; Table 6, read-out: T.F. ED50): 0.7 mg/kg
ED50 (male ICR mice [2]; [4]): 1.3 µmol/kg
ED50 (male ICR mice [2]; Table 6, read-out: R.T. ED50): 0.37 mg/kg

CCCCCCc1ccc(O)c(C2CCCCC2)c1O [O-2010, 2-Cyclohexyl-4-hexyl resorcinol]
T.F. % effect at dose (male ICR mice [1]; Table 6): 9.0%@ 30

CCCCCCC(C)(C)c1cc(OC)c(C2(O)CC(=O)CC(C)C2)c(OC)c1 (stereo not shown) [O-2123, 3-[4-(1,1-Dimethyl-heptyl)-2,6-dimethoxy-phenyl]-3-hydroxy-5-methyl-cyclohexanone]
Ki (CB1 receptor; Table 6, read-out: CB1 KI): 7330 ± 117 nM
CB1/CB2 (CB2 receptor): 14

COc1cc(C)cc(OC)c1C1(O)CCCCC1 [O-2298, 1-(2,6-Dimethoxy-4-methyl-phenyl)-cyclohexanol]
Ki (CB1 receptor; Table 6, read-out: CB1 KI): > 10000 nM
Ki (CB2 receptor; Table 6, read-out: CB2 KI): > 10000 nM

COc1cc(C)cc(OC)c1C1CCCCC1 [O-2299, 2-Cyclohexyl-1,3-dimethoxy-5-methylbenzene]
Ki (CB1 receptor; Table 6, read-out: CB1 KI): > 10000 nM
Ki (CB2 receptor; Table 6, read-out: CB2 KI): > 10000 nM
